Reference: patent US7381401B2, “T cell anergy is reversed by active Ras and regulated by diacylglycerol kinase” (The University of Chicago, priority 2004, dated 2008)

Experiments:
[1] = test system: CAR transgenic Th1 clones; experiment: IL-2 production by CAR transgenic Th1 clones overexpressing DGK isoforms; assay type: cell-based, mouse
Description: Adenoviral vectors. The CA H-Ras mutant Ras61L cDNA was provided by Dr. F. Fitch (University of Chicago). Construction of recombinant adenoviral vectors was performed using a two-cosmid system protocol described by Wang et al. (2000). Briefly, a gene expression unit containing a human ubiquitin promoter and either HRas61L, GFP, DGKα, kinase-dead DGKα, DGKζ, or no cDNA was inserted into a left-end plasmid, pLEP. pLEPUb-Ras61L and the right-end-plasmid, pREP, containing the E-deleted adenovirus type 2 (Ad2) genome, were digested, ligated and resulting cosmids were packaged into lambda phages. The DGKα kinase-dead DGKα, and DGKζ inserts also have a myc epitope tag. Competent bacteria were transduced with lambda phages and double selection of growing colonies was performed on Amp/Tet plates. Recombinant adenoviruses were then generated by transfection of 293 cells with purified, linearized adenoviral vector DNA. High titer stock solutions were obtained by large-scale infection of 293 cells followed by cesium chloride purification of complete viral particles. Plaque forming units (pfu) of virus preparations were determined by TCID 50 method (AdEasy Vector Systems Manual, Quantum Biotechnologies, Canada). Working solutions of adenoviral vectors were diluted in storage buffer (Nyberg-Hoffman and Aguilar-Cordova, 1999), and stored at −80° C. until needed. […]

[2] = test system: anergic CAR Tg Th1 cells; experiment: IL-2 production by anergic CAR Tg Th1 cells (ELISA); assay type: cell-based, mouse; settings: stimulated with anti-CD3/anti-CD28 beads
Text: Induction of T cell anergy. […] Adenoviral transduction of […] cells. […] T cell activation.

[3] = test system: anergic Th1 cells; experiment: IL-2 production by anergic Th1 clone pGL10 (ELISA); assay type: cell-based, mouse
Text: (§1) Induction of T cell anergy.

[4] = molecular target: DGKα (Homo sapiens, UniProt P23743); settings: cited from earlier work
[5] = test system: anergic Th1 cells; experiment: Toxicity of the DGK inhibitor to anergic Th1 cells; assay type: cell-based, mouse; settings: higher concentrations (data not shown)
Text: If increased DGK activity is contributing to diminished Ras activation and IL-2 production in the anergic state, then inhibition of this enzyme should result in increased IL-2 production by anergic cells. To explore this possibility, the pharmacologic inhibitor R59022 was employed (Jiang et al., 2000). […] Approximately 40% of this IL-2 production was recovered by stimulation with PMA+Ionomycin, arguing that that proportion was mediated by a proximal signaling defect.

[6] = test system: Egr2 mRNA; experiment: Semi-quantitative RT-PCR of Egr2 mRNA in pGL10 cells; assay type: cell-based, mouse; settings: pGL10 cells treated with ionomycin
Description: as §1
(§2) RT-PCR. Total RNA was extracted using Trizol, and cDNA was generated using oligo-dT as a primer. PCR™ was done with titrated doses of cDNA using primers specific for the following genes: […]
(§3) Between 36 and 39 cycles were performed at an annealing temperature of 55° C. Products were visualized on ethidium bromide-stained 1% agarose gels.

[7] = test system: DGK-ζ mRNA; experiment: Semi-quantitative RT-PCR of DGK-ζ mRNA in pGL10 cells; assay type: cell-based, mouse; settings: pGL10 cells treated with ionomycin
Description: as §1, §2, §3

Chain of DGKα (P23743 whole entry, species assumed): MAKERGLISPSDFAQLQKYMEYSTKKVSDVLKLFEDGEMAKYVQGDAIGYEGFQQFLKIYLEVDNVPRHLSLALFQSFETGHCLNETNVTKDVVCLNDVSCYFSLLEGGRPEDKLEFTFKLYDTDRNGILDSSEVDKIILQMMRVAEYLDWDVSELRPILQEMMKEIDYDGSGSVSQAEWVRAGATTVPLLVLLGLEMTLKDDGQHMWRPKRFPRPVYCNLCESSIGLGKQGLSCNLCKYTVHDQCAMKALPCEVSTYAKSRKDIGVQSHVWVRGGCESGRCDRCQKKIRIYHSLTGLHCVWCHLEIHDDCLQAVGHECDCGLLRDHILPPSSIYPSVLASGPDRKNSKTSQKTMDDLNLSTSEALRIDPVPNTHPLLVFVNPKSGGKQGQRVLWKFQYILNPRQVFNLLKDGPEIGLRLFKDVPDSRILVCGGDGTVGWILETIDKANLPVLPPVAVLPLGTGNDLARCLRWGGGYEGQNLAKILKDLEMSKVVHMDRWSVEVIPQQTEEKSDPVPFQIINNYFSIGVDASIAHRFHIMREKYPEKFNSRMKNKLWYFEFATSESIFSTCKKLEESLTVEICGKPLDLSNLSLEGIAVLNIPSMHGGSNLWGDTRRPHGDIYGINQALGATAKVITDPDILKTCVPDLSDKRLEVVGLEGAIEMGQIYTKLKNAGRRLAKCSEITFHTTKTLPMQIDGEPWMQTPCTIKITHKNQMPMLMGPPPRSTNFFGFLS

CCCCCCCCCCCCCC(=O)O[C@@H]1[C@@H](C)[C@@]2(O)[C@@H](C=C(CO)C[C@]3(O)C(=O)C(C)=C[C@@H]23)[C@@H]2C(C)(C)[C@]12OC(C)=O [PMA]
IL-2 production on addition of exogenous PMA ([1]; cells transduced to express DGKα): restored IL-2 production | IL-2 production on addition of exogenous PMA ([1]; cells transduced to express DGKζ): restored IL-2 production

Cc1nc2sccn2c(=O)c1CCN1CCC(=C(c2ccccc2)c2ccc(F)cc2)CC1 [R59022, 6-[2-(4-[(4-fluorophenyl)phenyl-methylene]-1-piperidinyl)ethyl]-7-methyl-5H-thiazolo[3,2-]pyrimidine-5-one]
IL-2 production [2]: partially restored IL-2 production | recovery of IL-2 production ([3]; anergic Th1 clone pGL10 stimulated with anti-CD3+anti-CD28, increasing concentrations, 25 min pre-incubation, ELISA): significant recovery of IL-2 production in a dose-dependent fashion | cytokine release by the inhibitor alone ([3]; anergic cells, no anti-CD3/anti-CD28 stimulation (data not shown)): did not induce detectable cytokine release | DGK isoform preference [4]: preferentially inhibits DGKα | toxicity to the cells [5]: toxic to the cells

C[C@H](CCC(=O)O)C[C@H](C)C[C@H](C)C(=O)/C=C(\O)[C@H](C)C[C@H](C)C/C=C/[C@@H](C)[C@@H](O)[C@@H](C)[C@@H](O)C[C@@H]1CC[C@@](C)([C@H]2CC[C@@](C)([C@@H](C)O)O2)O1 [ionomycin]
Egr2 mRNA [6]: only a minimal increase | expression of DGK-ζ mRNA [7]: upregulated
